Patent US20090054304A1, “HETEROCYCLIC MODULATORS OF TGR5 FOR TREATMENT OF DISEASE” (KALYPSYS, INC., priority 2007, published 2009)

target: T1, human TGR5 (Homo sapiens, UniProt Q8TDU6); experiment: cAMP production assay in HEK293 cells stably expressing TGR5 (LANCE TR-FRET); format: cell-based; conditions: 30 minutes stimulation, 1 mM IBMX, read-out: cAMP Production in 293-TGR5 Cells
T1 construct: expressed in transfected cells
T1 sequence (Q8TDU6 1-330): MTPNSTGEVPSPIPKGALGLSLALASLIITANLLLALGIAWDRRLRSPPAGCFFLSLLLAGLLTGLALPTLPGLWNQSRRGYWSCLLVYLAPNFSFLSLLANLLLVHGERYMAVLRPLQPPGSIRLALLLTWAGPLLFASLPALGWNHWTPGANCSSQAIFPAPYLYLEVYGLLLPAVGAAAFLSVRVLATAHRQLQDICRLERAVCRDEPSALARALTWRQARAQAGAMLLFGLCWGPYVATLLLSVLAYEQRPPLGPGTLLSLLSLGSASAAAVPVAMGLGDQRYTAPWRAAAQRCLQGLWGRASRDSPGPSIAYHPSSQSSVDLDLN
Experimental: HEK293 cells stably expressing TGR5 (HEK293-TGR5) were established by stably transfecting HEK-293 cells with an expression vector (pcDNA 3.1, Invetrogen) inserted with human TGR5 cDNA using Fugene6 (Roche, Indianapolis, Ind.) according to conventional methods. Cells were grown in DMEM (invitrogen, Carlsbad, Calif.) supplemented with 10% FBS, 1% penicillin/streptomycin under geneticin selection. The presence of TGR5 transcripts in these cells was confirmed using branched DNA (bDNA, Genospectra, Inc., Fremont Calif.) following the manufacturer's protocol and using specific probes for human TGR5. cAMP production assay was performed in high throughput 1536 well format using LANCE cAMP detection kit (Perkin Elmer Inc., Boston, Mass.) according to the manufacturer's protocol. Briefly, HEK293-TGR5 cells were harvested using non-enzymatic cell dissociation buffer (Invitrogen, Carlsbad, Calif.) and suspended in DMEM supplemented with 0.1% FBS at a density of 800,000 cells/ml. Alexa antibody was added to the cell suspension, and 4 ul of the mixture was dispensed in white opaque tissue culture treated Greiner 1536 well plates (USA Scientific, Inc., Ocala, Fla.). After an overnight incubation at 37C in an atmosphere of 10% CO2 and 95% humidity, 1 ul of 5 mM IBMX (Sigma, St. Louis, Mo.) solution in DMEM was dispensed for a final concentration of 1 mM. Cells were then stimulated with test compounds for 30 minutes, after which time 5 ul of detection reagent was added and incubated for 1-7 hrs at room temperature. TR-FRET signal was detected using the Viewlux (Perkin Elmer Inc., Boston Mass.). EC50 values were determined using Graph Pad Prizm analysis (GraphPad Software, Inc). The EC50 values for a wide range of bile acids generated from this assay were in agreement with the values published in the scientific literature. […] The symbol (+) denotes an EC50 value of ≦10 μM while the symbol (−) denotes an EC50 value of >10 μM (see Table 1).

`FC(F)(F)c1ccc(CNCc2cc3ccsc3nc2-c2ccsc2)cc1` [Example 7, 1-(6-(thiophen-3-yl)thieno[2,3-b]pyridin-5-yl)-N-(4-(trifluoromethyl)benzyl)methanamine] and `CC(C)n1ncc2cc(CNCc3ccc(C(F)(F)F)cc3)c(-c3ccsc3)nc21` [Example 1, 1-(1-isopropyl-6-(thiophen-3-yl)-1H-pyrazolo[3,4-b]pyridin-5-yl)-N-(4-(trifluoromethyl)benzyl)methanamine] cannot be ordered by EC50: no more than 10 µM for the first, no more than 10 µM for the second.

`CC(C)n1ncc2cc(CNCCc3ccc(Br)cc3)c(-c3ccsc3)nc21` [Example 2, 2-(4-Bromophenyl)-N-((1-isopropyl-6-(thiophen-3-yl)-1H-pyrazolo[3,4-b]pyridin-5-yl)methyl)ethanamine] and `Cc1nn(C)c2nc(-c3ccsc3)c(CNCCc3ccc(Br)cc3)cc12` [Example 3, 2-(4-bromophenyl)-N-((1,3-dimethyl-6-(thiophen-3-yl)-1H-pyrazolo[3,4-b]pyridin-5-yl)methyl)ethanamine] cannot be ordered by EC50: no more than 10 µM for the first, no more than 10 µM for the second.

`O=c1cc2nc(-c3ccsc3)c(CNCCc3ccc(Br)cc3)cc2c[nH]1` [Example 10, 3-((4-bromophenethylamino)methyl)-2-(thiophen-3-yl)-1,6-naphthyridin-7(6H)-one] and `O=c1ccc2cc(CNCCc3ccc(Br)cc3)c(-c3ccsc3)nc2[nH]1` [Example 12, 6-((4-bromophenethylamino)methyl)-7-(thiophen-3-yl)-1,8-naphthyridin-2(1H)-one] cannot be ordered by EC50: greater than 10 µM for the first, no more than 10 µM for the second.

`Brc1ccc(CCNCc2cc3ccncc3nc2-c2ccsc2)cc1` [Example 8, 2-(4-bromophenyl)-N-((2-(thiophen-3-yl)-1,7-naphthyridin-3-yl)methyl)ethanamine] and `Brc1ccc(CCNCc2cc3ccsc3nc2-c2ccsc2)cc1` [Example 6, 2-(4-bromophenyl)-N-((6-(thiophen-3-yl)thieno[2,3-b]pyridin-5-yl)methyl)ethanamine] cannot be ordered by EC50: no more than 10 µM for the first, no more than 10 µM for the second.

`Cc1nn(C)c2nc(-c3ccsc3)c(CNCc3ccc(C(F)(F)F)cc3)cc12` [Example 4, 1-(1,3-dimethyl-6-(thiophen-3-yl)-1H-pyrazolo[3,4-b]pyridin-5-yl)-N-(4-(trifluoromethyl)benzyl)methanamine] and `COc1ccc2cc(CNCCc3ccc(Br)cc3)c(-c3ccsc3)nc2n1` [Example 11, 2-(4-bromophenyl)-N-((7-methoxy-2-(thiophen-3-yl)-1,8-naphthyridin-3-yl)methyl)ethanamine] cannot be ordered by EC50: greater than 10 µM for the first, no more than 10 µM for the second.

`Brc1ccc(CCNCc2cc3sccc3nc2-c2ccsc2)cc1` [Example 5, 2-(4-bromophenyl)-N-((5-(thiophen-3-yl)thieno[3,2-b]pyridin-6-yl)methyl)ethanamine] and `COc1cc2nc(-c3ccsc3)c(CNCCc3ccc(Br)cc3)cc2cn1` [Example 9, 2-(4-bromophenyl)-N-((7-methoxy-2-(thiophen-3-yl)-1,6-naphthyridin-3-yl)methyl)ethanamine] cannot be ordered by EC50: no more than 10 µM for the first, no more than 10 µM for the second.
